As a reminder, the DC50 is the midpoint of the concentration-degradation curve. By Dmax is commonly meant the greatest extent of degradation seen.

Read-outs that look alike come from different tables or passages of the source.

The experiment deals with T1, Androgen Receptor (Homo sapiens, UniProt P10275).
T1 construct: endogenous in cells; host or cells: VCaP cells
T1 sequence (P10275 1-920): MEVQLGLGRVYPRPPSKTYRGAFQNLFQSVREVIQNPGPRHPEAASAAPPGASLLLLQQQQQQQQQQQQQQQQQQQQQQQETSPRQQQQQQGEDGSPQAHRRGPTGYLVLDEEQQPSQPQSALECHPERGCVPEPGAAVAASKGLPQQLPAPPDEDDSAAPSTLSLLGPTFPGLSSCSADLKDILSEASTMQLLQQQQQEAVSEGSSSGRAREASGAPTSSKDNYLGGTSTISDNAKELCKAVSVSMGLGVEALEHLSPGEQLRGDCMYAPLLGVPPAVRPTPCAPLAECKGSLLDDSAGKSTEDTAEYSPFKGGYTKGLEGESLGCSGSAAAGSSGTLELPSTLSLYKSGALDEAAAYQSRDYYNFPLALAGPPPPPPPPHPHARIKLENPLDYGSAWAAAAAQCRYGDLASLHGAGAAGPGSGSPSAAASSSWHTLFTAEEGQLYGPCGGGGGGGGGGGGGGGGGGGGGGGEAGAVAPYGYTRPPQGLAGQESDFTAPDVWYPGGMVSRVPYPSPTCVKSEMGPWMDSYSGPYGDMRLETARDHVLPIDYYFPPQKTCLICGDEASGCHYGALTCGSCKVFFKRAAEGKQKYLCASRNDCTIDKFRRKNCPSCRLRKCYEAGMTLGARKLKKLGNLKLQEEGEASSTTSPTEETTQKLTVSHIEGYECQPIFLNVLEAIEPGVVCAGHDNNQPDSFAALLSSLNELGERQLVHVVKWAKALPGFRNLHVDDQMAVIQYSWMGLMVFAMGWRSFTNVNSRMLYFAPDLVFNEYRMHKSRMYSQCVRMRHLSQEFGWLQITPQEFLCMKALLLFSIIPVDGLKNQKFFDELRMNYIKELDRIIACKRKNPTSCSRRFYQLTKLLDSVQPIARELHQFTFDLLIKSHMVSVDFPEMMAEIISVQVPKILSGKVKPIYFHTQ
The experiment can be described thus: Androgen Receptor ELISA assay (PathScan AR ELISA) in VCaP cells: AR degradation, Dmax and DC50. Format: cell-based. Particulars: for DC50: read-out: VCaP DC50; for Dmax: VCaP. In outline:
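VCaP cells, 30,000/well, grown ≥3 days in phenol red-free RPMI with 5% charcoal-stripped FBS; compound added in 0.1% DMSO with 0.1 nM R1881, 7 half-log doses, 24 h. Lysate AR quantified by PathScan sandwich ELISA, HRP/TMB read at 450 nm, giving DC50 and Dmax.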
In general terms: ELISA stands for enzyme-linked immunosorbent assay.

Where [1] appears, read: VCaP cells, Table 36, read-out: VCaP Dmax (%).
Setting [2] is: read-out: VCaP Dmax (%), VCaP cells, Table 36.

Take `Cc1ncsc1-c1ccc([C@H](C)NC(=O)[C@@H]2C[C@@H](O)CN2C(=O)[C@@H](NC(=O)COCCN2CCN(c3ccc(C(=O)N[C@H]4C(C)(C)[C@H](Oc5ccc(C#N)c(Cl)c5)C4(C)C)nc3)CC2)C(C)(C)C)cc1` [Example 654, N-((1r,3r)-3-(3-chloro-4-cyanophenoxy)-2,2,4,4-tetramethylcyclobutyl)-5-(4-(2-(2-(((S)-1-((2S,4R)-4-hydroxy-2-(((S)-1-(4-(4-methylthiazol-5-yl)phenyl)ethyl)carbam-oyl)pyrrolidin-1-yl)-3,3-dimethyl-1-oxobutan-2-yl)amino)-2-oxoethoxy)ethyl)pipera-zin-1-yl)picolinamide]: the DC50 (VCaP cells, Table 36) is below 50 nM. The Dmax under setting [1] was above 71%.

For the compound `Cc1ncsc1-c1ccc([C@H](C)NC(=O)[C@@H]2C[C@@H](O)CN2C(=O)[C@@H](NC(=O)[C@H](CO)N2CCN(CCOc3ccc(C(=O)N[C@H]4C(C)(C)[C@H](Oc5ccc(C#N)c(Cl)c5)C4(C)C)cc3)CC2)C(C)(C)C)cc1` [Example 655, (2S,4R)-1-((S)-2-((S)-2-(4-(2-(4-(((1r,3r)-3-(3-chloro-4-cyanophenoxy)-2,2,4,4-tetramethylcyclobutyl)carbamoyl)phenoxy)eth-yl)piperazin-1-yl)-3-hydroxypropanamido)-3,3-dimethylbutanoyl)-4-hydroxy-N-((S)-1-(4-(4-methylthiazol-5-yl)phenyl)ethyl)pyrrolidine-2-carboxamide], for the setting “VCaP cells, Table 36”, the DC50 was above 501 nM. Besides, where the note is “read-out: VCaP Dmax (%)”, the Dmax was 26 to 50%.

For `Cc1ncsc1-c1ccc([C@H](C)NC(=O)[C@@H]2C[C@@H](O)CN2C(=O)[C@@H](NC(=O)COCCCCCNc2ccc(C(=O)N[C@H]3C(C)(C)[C@H](Oc4ccc(C#N)c(Cl)c4)C3(C)C)cc2F)C(C)(C)C)cc1` [Example 656, (2S,4R)-1-((S)-2-(2-((5-((4-(((1r,3r)-3-(3-chloro-4-cyanophenoxy)-2,2,4,4-tetramethylcyclobutyl)carbamoyl)-2-fluorophenyl)amino)pentyl)oxy)acetamido)-3,3-dimethylbutanoyl)-4-hydroxy-N-((S)-1-(4-(4-methylthiazol-5-yl)phenyl)ethyl)pyrrolidine-2-carboxamide], where the note is “VCaP cells, Table 36”, the DC50 was below 50 nM. Further, under setting [2], the Dmax is above 71%.

`Cc1ncsc1-c1ccc([C@H](C)NC(=O)[C@@H]2C[C@@H](O)CN2C(=O)[C@@H](NC(=O)COCCCCCc2ccc(C(=O)N[C@H]3C(C)(C)[C@H](Oc4ccc(C#N)c(C(F)(F)F)c4)C3(C)C)cc2)C(C)(C)C)cc1` [Example 657, (2S,4R)-1-((S)-2-(2-((5-(4-(((1r,3r)-3-(4-cyano-3-(trifluoromethyl)phenoxy)-2,2,4,4-tetramethylcyclobutyl)carbamoyl)phenyl)pentyl)oxy)acetamido)-3,3-dimethylbutanoyl)-4-hydroxy-N-((S)-1-(4-(4-methylthiazol-5-yl)phenyl)ethyl)pyrrolidine-2-carboxamide]: the DC50 (VCaP cells, Table 36) was below 50 nM. For the same compound, the Dmax under setting [2] was in the range of 51 to 70%.

Consider `Cc1ncsc1-c1ccc([C@H](C)NC(=O)[C@@H]2C[C@@H](O)CN2C(=O)[C@H](c2cc(OCCN3CCN(c4ccc(C(=O)N[C@H]5C(C)(C)[C@H](Oc6ccc(C#N)c(Cl)c6)C5(C)C)cn4)CC3)no2)C(C)C)cc1` [Example 658, N-((1r,3r)-3-(3-chloro-4-cyanophenoxy)-2,2,4,4-tetramethylcyclobutyl)-6-(4-(2-((5-((S)-1-((2S,4R)-4-hydroxy-2-(((S)-1-(4-(4-methylthiazol-5-yl)phenyl)ethyl)carbam-oyl)pyrrolidin-1-yl)-3-methyl-1-oxobutan-2-yl)isoxazol-3-yl)oxy)ethyl)piperazin-1-yl)nicotinamide], for which the DC50 (VCaP cells, Table 36) was above 501 nM. Besides, the Dmax under setting [1] was below 25%.

For the origin of these results see patent US11427548B2 (Arvinas Operations, Inc., priority 2015, dated 2022).
